# Read-outs that look alike come from different tables or passages of the source.
# Tested on: recombinant rabies virus 1088 strain expressing Gaussia Luciferase (GLuc) (1088/GLuc)
# Format: cell-based
SMILES,IC50 (read-out: Anti-rabies activity) [µM],IC50 (read-out: IC50) [µM]
"CC(C)CN1C[C@H]2C[C@]3(C(=O)NCc4ccccc4)NC[C@H]2[C@H]1[C@H]3Cc1ccccc1 (relative stereo) [IF-1, (3S*, 3aS*, 6S*, 7R*, 7aS*) -N, 7-dibenzyl-1-isobutyloctahydro-6H-3,6-methanopyrrolo[3,2-c]pyridine-6-carboxamide]",10 to 30,12.6
CC(C)CNC(=O)[C@]12NC[C@@H]3C[C@H]1CN(CCc1ccccc1)[C@H]2[C@@H]3CC(C)C (relative stereo) [IB-760],< 5,–
NC(=O)CCNC(=O)C12NCC3CC1CN(Cc1ccc(O)cc1)C2C3Cc1cccc2ccccc12 (stereo not shown) [IB-743],< 5,–
CC(C)CCN1C[C@@H]2C[C@H]3CN[C@]2(C(=O)NCc2ccc(O)cc2)[C@@H]1[C@@H]3Cc1ccccc1 (relative stereo) [IB-577],10 to 30,–
CCCCCCNC(=O)[C@@]12C[C@@H]3CN(CCC(C)C)[C@@H]([C@@H]3CN1)[C@H]2Cc1ccc(O)cc1 (relative stereo) [IF-583],< 5,–
CC(C)CN1C[C@@H]2C[C@H]3CN[C@]2(C(=O)NCc2ccccc2)[C@@H]1[C@@H]3Cc1ccc(O)cc1 (relative stereo) [IB-783],10 to 30,–
O=C(O)CCC1C2CNC3(C(=O)NCc4cccc5ccccc45)C(C2)CN(CCO)C13 (stereo not shown) [IB-425],10 to 30,–
CC(C)CC1C2C=NC3(C(=O)NCc4ccccc4)C(C2)CN(Cc2ccc(Cl)cc2)C13 (stereo not shown) [IIB-83],< 5,–
O=C(NCCO)[C@@]12C[C@@H]3CN(Cc4ccc(F)cc4)[C@@H]([C@@H]3CN1)[C@H]2Cc1cccc2ccccc12 (relative stereo) [IF-620],< 5,–
O=C(NCc1ccc(O)cc1)[C@@]12C[C@@H]3CN(Cc4cccc5ccccc45)[C@@H]([C@@H]3CN1)[C@H]2Cc1ccccc1 (relative stereo) [IF-472],< 5,–
N=C(N)NCCCNC(=O)[C@]12NC[C@@H]3C[C@H]1CN(CCc1ccccc1)[C@H]2[C@@H]3Cc1ccccc1 (relative stereo) [IB-344],10 to 30,–
O=C(O)CCNC(=O)C12CC3CN(CC4CCCCC4)C(C3CN1)C2Cc1cccc2ccccc12 (stereo not shown) [IF-416],10 to 30,–
CC(C)CC1C2CNC3(C(=O)NCCc4ccccc4)C(C2)CN(Cc2ccc(F)cc2)C13 (stereo not shown) [IB-725],< 5,–
CC(C)CC1C2C3C=NC1(C(=O)NCc1ccccc1)CC3CN2Cc1cccc(Cl)c1 (stereo not shown) [IIF-84],5 to 10,–
O=C(NCCO)[C@]12NC[C@@H]3C[C@H]1CN(Cc1cccc4ccccc14)[C@H]2[C@@H]3Cc1ccccc1 (relative stereo) [IB-588],< 5,–
N=C(N)NCCC[C@@H]1[C@@H]2[C@@H]3CN[C@@]1(C(=O)NCc1ccc(F)cc1)C[C@@H]3CN2Cc1cccc2ccccc12 (relative stereo) [IF-245],< 5,–
CC(C)CCN1C[C@H]2C[C@]3(C(=O)NCc4ccc(O)cc4)NC[C@H]2[C@H]1[C@H]3Cc1cccc2ccccc12 (relative stereo) [IF-465],10 to 30,–
CC(C)CCNC(=O)[C@@]12C[C@@H]3CN(Cc4ccc(O)cc4)[C@@H]([C@@H]3CN1)[C@H]2Cc1cccc2ccccc12 (relative stereo) [IF-684],10 to 30,–
"O=C(NCc1ccccc1)[C@]12NC[C@H]3C[C@H]1CN(Cc1cccc4ccccc14)[C@H]2[C@@H]3Cc1ccccc1 (relative stereo) [IB-42, (3S*,3aS*,6S*,7R*,7aS*)-N,7-dibenzyl-1-(naphthalen-1-ylmethyl)octahydro-3aH-3,6-methanopyrrolo[3,2-b]pyridine-3a-carboxamide]",10 to 30,–
CC(C)CCC1C2CNC3(C(=O)NC(C)C)C(C2)CN(Cc2ccc(O)cc2)C13 (stereo not shown) [IB-501],< 5,–
O=C(NCc1ccccc1)[C@@]12C[C@@H]3CN(Cc4ccc(F)cc4)[C@@H]([C@@H]3CN1)[C@H]2Cc1ccccc1 (relative stereo) [IF-649],< 5,–
CC(C)CNC(=O)[C@@]12C[C@@H]3CN(Cc4ccc(F)cc4)[C@@H]([C@@H]3CN1)[C@H]2Cc1ccccc1 (relative stereo) [IF-653],10 to 30,–
CC(C)CCNC(=O)[C@@]12C[C@@H]3CN(CCc4ccccc4)[C@@H]([C@@H]3CN1)[C@H]2Cc1ccccc1 (relative stereo) [IF-744],< 5,–
O=C(NCCc1ccccc1)[C@@]12C[C@@H]3CN(Cc4ccc(O)cc4)[C@@H]([C@@H]3CN1)[C@H]2Cc1cccc2ccccc12 (relative stereo) [IF-580],10 to 30,–
O=C(O)CCNC(=O)[C@]12NC[C@@H]3C[C@H]1CN(Cc1ccccc1)[C@H]2[C@@H]3Cc1cccc2ccccc12 (relative stereo) [IB-616],10 to 30,–
CCCCCCNC(=O)C12NCC3CC1CN(CC(N)=O)C2C3Cc1cccc2ccccc12 (stereo not shown) [IB-110],< 5,–
NC(=O)CC1C2C3CNC1(C(=O)NCc1cccc4ccccc14)CC3CN2CCc1ccccc1 (stereo not shown) [IF-223],10 to 30,–
CC(C)CNC(=O)C12CC3CN(Cc4cccc5ccccc45)C(C3CN1)C2CC(N)=O (stereo not shown) [IF-226],10 to 30,–
CC(C)CNC(=O)C12NCC3CC1CN(CCc1ccccc1)C2C3CCC(=O)O (stereo not shown) [IB-508],10 to 30,–
CC(C)CC[C@@H]1[C@@H]2CN[C@@]3(C(=O)NCCC(=O)O)[C@@H](C2)CN(CC2CCCCC2)[C@@H]13 (relative stereo) [IB-613],10 to 30,–

# Reference: patent EP4104902B1, “COMPOUNDS AND M[…] SAME” (priority 2020, dated 2021)
